In US11180487B2, “Substituted cyanoindoline derivatives as NIK inhibitors” (Janssen Pharmaceutica NV, priority 2016, dated 2021):
Read-outs that look alike come from different tables or passages of the source.

Experiments:
[1] = test system: JJN-3 (NIK translocated) multiple myeloma cells; test: Antiproliferative activity on JJN-3 multiple myeloma cells (CellTiter-Glo, 96 hr), Biological Assay C; type: cell-based, human; settings: JJN-3 (NIK translocated) cells, averaged values, read-out: JJN-3 Proliferation inhibition (IC50 (nM))
In short: (§1)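 Growth read-out was CellTiter-Glo luminescence after 96 h compound exposure, given as percent of no-drug control after subtracting a blank of cells read at dosing. Compounds ran as 9-point serial 1:3 dilutions in 0.3% DMSO, duplicate wells, on JJN-3 (15000/well) or KMS12-BM (20000/well) cells in RPMI 1640/10% FCS.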

[2] = test system: KMS12-BM (NIK WT) multiple myeloma cells; test: Antiproliferative activity on KMS12-BM multiple myeloma cells (CellTiter-Glo, 96 hr), Biological Assay C; type: cell-based, human; settings: averaged values, read-out: KMS-12 Proliferation inhibition (IC50 (nM))
In short: as §1

[3] = test system: P-IKKα levels in L363 (NIK translocated multiple myeloma) cells; test: Effect of compounds on P-IKKα levels in L363 cells (Mesoscale sandwich immuno-assay), Biological Assay B; type: cell-based, human; settings: 2 hr treatment, averaged values, read-out: Inhibition of pIKKα_L-363 (IC50 (nM))
In short: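 P-IKKα in lysates quantified by Mesoscale sandwich immunoassay after 2 h compound exposure in 1% DMSO, duplicate wells, 8-point 1:3 series. Human L363 cells had been preincubated 24 h with BAFF (1 μg/ml stock). Blank (10 μM ADS125117) subtracted; IC50 fitted sigmoidally to % inhibition of control.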

[4] = molecular target: recombinant human NF-kappaB-inducing kinase (NIK/MAP3K14) (Homo sapiens, UniProt Q99558); test: Inhibition of auto-phosphorylation of recombinant human NIK/MAP3K14 activity (AlphaScreen), Biological Assay A; type: biochemical; settings: averaged values over all measurements on all batches
In short: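 AlphaScreen detection with anti-phospho-IKK Ser176/180 antibody plus Protein A acceptor/glutathione donor beads after 1 h, 25 °C reaction of 0.2 nM GST-tagged kinase, 25 μM ATP and compound. Buffer: 50 mM Tris pH 7.5, MgCl2, EGTA, DTT, vanadate; 1% DMSO. IC50 fitted sigmoidally to % inhibition.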

Sequence of recombinant human NF-kappaB-inducing kinase (NIK/MAP3K14) (Q99558 whole entry): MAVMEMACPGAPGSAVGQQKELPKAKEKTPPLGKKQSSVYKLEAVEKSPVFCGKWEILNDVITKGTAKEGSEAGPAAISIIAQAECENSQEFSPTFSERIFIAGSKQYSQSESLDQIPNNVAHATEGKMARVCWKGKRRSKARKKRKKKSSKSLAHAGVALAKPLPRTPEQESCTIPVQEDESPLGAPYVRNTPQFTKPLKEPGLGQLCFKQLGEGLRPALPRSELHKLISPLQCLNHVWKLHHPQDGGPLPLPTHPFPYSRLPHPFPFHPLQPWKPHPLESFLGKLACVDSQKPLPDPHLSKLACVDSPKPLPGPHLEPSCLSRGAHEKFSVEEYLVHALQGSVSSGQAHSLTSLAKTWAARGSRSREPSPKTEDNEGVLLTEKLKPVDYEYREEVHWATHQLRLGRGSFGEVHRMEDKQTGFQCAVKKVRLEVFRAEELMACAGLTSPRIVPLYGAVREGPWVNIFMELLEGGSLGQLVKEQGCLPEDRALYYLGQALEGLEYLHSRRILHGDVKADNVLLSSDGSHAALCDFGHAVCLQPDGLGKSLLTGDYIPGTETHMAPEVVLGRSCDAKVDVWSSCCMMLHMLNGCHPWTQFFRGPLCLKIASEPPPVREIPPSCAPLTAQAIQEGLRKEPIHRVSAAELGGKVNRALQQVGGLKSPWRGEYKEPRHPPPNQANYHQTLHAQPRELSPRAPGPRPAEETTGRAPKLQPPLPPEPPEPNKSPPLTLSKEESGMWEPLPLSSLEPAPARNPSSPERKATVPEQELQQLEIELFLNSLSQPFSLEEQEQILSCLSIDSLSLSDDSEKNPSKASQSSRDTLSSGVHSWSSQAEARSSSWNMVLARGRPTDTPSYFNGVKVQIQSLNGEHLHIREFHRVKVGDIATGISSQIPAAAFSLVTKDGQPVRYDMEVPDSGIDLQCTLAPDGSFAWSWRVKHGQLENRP

Structure (SMILES) | IC50 ([1]; Homo sapiens, JJN-3, 96 h) [nM] | IC50 ([2]; Homo sapiens, KMS-12-BM, 96 h) [nM] | IC50 ([3]; Homo sapiens, L-363, 2 h) [nM] | melting point [°C] | IC50 [4] [nM] | IC50 [1] [nM] | IC50 [2] [nM] | IC50 [3] [nM]
CC1(COc2ccc(C#N)cc2Nc2nccc(-c3cc(C#N)c4c(c3)[C@@](C)(CO)CN4)n2)COC1 [Compound 14] | 170 | > 10000 | 21.4 | 162 | 5.5 | – | – | –
CCCCc1ccc(C#N)cc1Nc1nccc(-c2cc(C#N)c3c(c2)[C@@](C)(CO)CN3)n1 [Compound 15] | 117 | > 10000 | ~269 | 110 | 11 | – | – | –
CC(C)Oc1ccc(C#N)cc1Nc1nccc(-c2cc(C#N)c3c(c2)[C@@](C)(CO)CN3)n1 [Compound 16] | 258 | 550 | 15.5 | 162 | 15.5 | – | – | –
Cc1cc(S(C)(=O)=O)ccc1Nc1nccc(-c2cc(C#N)c3c(c2)[C@@](C)(CO)CN3)n1 [Compound 17] | 56 | 479 | 6.8 | 148 | 1.1 | – | – | –
CC(C)Oc1cc(P(C)(C)=O)ccc1Nc1nccc(-c2cc(C#N)c3c(c2)[C@@](C)(CO)CN3)n1 [Compound 18] | 407 | ~8130 | 20 | 263 | 2.6 | – | – | –
C[C@]1(CO)CNc2c(C#N)cc(-c3ccnc(Nc4cc(C#N)c(C5CCOCC5)cc4OCC4CC4)n3)cc21 [Compound 19] | 1950 | > 10000 | 38.9 | 284 | 27.5 | – | – | –
COCCOc1ccc(Cl)cc1Nc1nccc(-c2cc(C#N)c3c(c2)[C@@](C)(CO)CN3)n1 [Compound 45] | 490 | > 10000 | 37.2 | 169 | 9.1 | – | – | –
COc1cc(P(C)(C)=O)ccc1Nc1nccc(-c2cc(C#N)c3c(c2)[C@@](C)(CO)CN3)n1 [Compound 64] | ~246 | 1230 | 18.2 | 160 | 1.8 | – | – | –
Cc1ccc(C#N)cc1Nc1nccc(-c2cc(C#N)c3c(c2)[C@](C)(CO)CN3)n1 [Compound 65] | 1100 | > 10000 | 103 | 218 | 4.1 | – | – | –
COCCOc1ccc(C#N)cc1Nc1nccc(-c2cc(C#N)c3c(c2)[C@@](C)(CO)CN3)n1 [Compound 66] | 251 | 19 | 5.9 | 165 | 3 | – | – | –
COc1cc(S(C)(=O)=O)ccc1Nc1nccc(-c2cc(C#N)c3c(c2)[C@@](C)(CO)CN3)n1 [Compound 73] | 68 | > 10000 | 1.4 | 201 | 2.2 | – | – | –
COCCCc1ccc(C#N)cc1Nc1nccc(-c2cc(C#N)c3c(c2)[C@@](C)(CO)CN3)n1 [Compound 74] | 182 | ~1150 | 16.2 | 124 | 4 | – | – | –
CN1CCC(Oc2ccc(Cl)cc2Nc2nccc(-c3cc(C#N)c4c(c3)C(C)(C)CN4)n2)CC1 [Compound 80] | 124 | 1000 | 209 | 192 | 15.2 | – | – | –
COc1cc(N2CCC(O)CC2)c(Cl)cc1Nc1nccc(-c2cc(C#N)c3c(c2)C(C)(C)CN3)n1 [Compound 105] | 118 | ~6610 | 22.9 | > 250 | 28.5 | – | – | –
COC(=O)c1cc(OC)c(Nc2nccc(-c3cc(C#N)c4c(c3)C(C)(C)CN4)n2)cc1Cl [Compound 106] | 1620 | > 10000 | 123 | 208 | 63.1 | – | – | –
COc1cc(C(=O)NC2CCOCC2)c(Cl)cc1Nc1nccc(-c2cc(C#N)c3c(c2)C(C)(C)CN3)n1 [Compound 108] | 39 | > 3980 | 3.8 | > 260 | 11 | – | – | –
CC(=O)OC[C@@]1(C)CNc2c(C#N)cc(-c3ccnc(Nc4cc(C#N)ccc4C)n3)cc21 [Compound 125] | 182 | ~6920 | 3.6 | 213 | 13.8 | – | – | –

Structure (SMILES) | IC50 ([1]; Homo sapiens, JJN-3, 96 h) [nM] | IC50 ([2]; Homo sapiens, KMS-12-BM, 96 h) [nM] | IC50 ([3]; Homo sapiens, L-363, 2 h) [nM] | melting point [°C] | IC50 [4] [nM] | IC50 [1] [nM] | IC50 [2] [nM] | IC50 [3] [nM]
Cc1ccc(C#N)cc1Nc1nccc(-c2cc(C#N)c3c(c2)[C@@](C)(COC(=O)C(C)C)CN3)n1 [Compound 126] | 151 | ~8910 | ~6.9 | 200 | 112 | – | – | –
COCCOc1ccc(C#N)cc1Nc1nccc(-c2cc(C#N)c3c(c2)[C@@](C)(COC(C)=O)CN3)n1 [Compound 127] | 570 | > 10000 | 11.5 | 158 | 129 | – | – | –
CC(=O)OC[C@@]1(C)CNc2c(C#N)cc(-c3ccnc(Nc4cc(C#N)ccc4OCC4CC4)n3)cc21 [Compound 128] | 407 | > 10000 | 20.9 | 156 | 251 | – | – | –
Cc1ccc(C#N)cc1Nc1nccc(-c2cc(C#N)c3c(c2)[C@@](C)(CO)CN3)n1 [Compound 129] | – | – | – | 190 | 1.4 | 330 | ~7940 | 3.2
Cc1ccc(C#N)cc1Nc1nccc(-c2cc(C#N)c3c(c2)[C@@](C)(CO)CN3)n1 [Compound 130] | – | – | – | 264 | 1.5 | 167 | 9770 | 2.2
Cc1ccc(C#N)cc1Nc1nccc(-c2cc(C#N)c3c(c2)[C@@](C)(CO)CN3)n1 [Compound 131] | – | – | – | 174 | 1.3 | 324 | > 10000 | 4.7
Cc1ccc(C#N)cc1Nc1nccc(-c2cc(C#N)c3c(c2)[C@@](C)(CO)CN3)n1 [Compound 132] | – | – | – | 234 | 1.3 | 128 | 5010 | 2.2
Cc1ccc(C#N)cc1Nc1nccc(-c2cc(C#N)c3c(c2)[C@@](C)(CO)CN3)n1 [Compound 133] | – | – | – | 262 | 0.7 | 170 | 4360 | 3
[2H]C([2H])(O)[C@@]1(C)CNc2c(C#N)cc(-c3ccnc(Nc4cc(C#N)ccc4C)n3)cc21 [Compound 136] | 269 | > 10000 | < 0.66 | 219 | 1.7 | – | – | –
Cc1ccc(C#N)cc1Nc1nccc(-c2cc(C#N)c3c(c2)[C@@](C)(COC(=O)CN)CN3)n1 [Compound 137] | 545 | ~10000 | 2.7 | 290 | 6 | – | – | –
Cc1ccc(C#N)cc1Nc1nccc(-c2cc(C#N)c3c(c2)[C@@](C)(COC(=O)[C@@H](N)C(C)C)CN3)n1 [Compound 139] | 302 | ~8910 | 26.9 | 202 | 56.2 | – | – | –
Cc1ccc(C#N)cc1Nc1nccc(-c2cc(C#N)c3c(c2)[C@@](C)(COC(=O)[C@H](N)Cc2ccccc2)CN3)n1 [Compound 140] | 550 | ~9120 | 56.2 | 180 | 51.3 | – | – | –
Cc1ccc(C#N)cc1Nc1nccc(-c2cc(C#N)c3c(c2)[C@@](C)(COC(=O)[C@@H](C)N)CN3)n1 [Compound 141] | 33 | > 10000 | 2.2 | 212 | 8.7 | – | – | –
Cc1ccc(C#N)cc1Nc1nccc(-c2cc(C#N)c3c(c2)[C@@](C)(COC(=O)CC(=O)O)CN3)n1 [Compound 142a] | – | > 10000 | – | 138 | 12 | 3630 | – | 2.2
Cc1ccc(C#N)cc1Nc1nccc(-c2cc(C#N)c3c(c2)[C@@](C)(COC(=O)CC(=O)O)CN3)n1 [Compound 142b] | – | – | – | 214 | 17 | 977 | > 10000 | ~58.9
Cc1ccc(C#N)cc1Nc1nccc(-c2cc(C#N)c3c(c2)[C@@](C)(COS(=O)(=O)O)CN3)n1 [Compound 143] | 200 | > 10000 | 12.3 | > 270 | 6.5 | – | – | –
Cc1ccc(C#N)cc1Nc1nccc(-c2cc(C#N)c3c(c2)[C@@](C)(COC(=O)CN2CCOCC2)CN3)n1 [Compound 146] | 78 | > 10000 | 5.2 | 186 | 19.9 | – | – | –
